In paper PMC3355380, “Back to the Future: Lessons Learned in Modern Target-based and Whole-Cell Lead Optimization of Antimalarials” (Current Topics in Medicinal Chemistry, 2012):
Converted amounts (≈) assume the structure as drawn. Like-named read-outs stand apart in the source and are kept apart here.

What was measured:
[1] = tested on: fifteen P. falciparum strains; assay: panel of fifteen P. falciparum wild type and drug resistant strains; assay type: cell-based; conditions: Plasmodium falciparum, read-out: in vitro EC50s across fifteen P. falciparum strains
[2] = tested on: P. falciparum 3D7; assay: P. falciparum 3D7 proliferation assay; assay type: cell-based, Plasmodium falciparum; conditions: for EC50: Plasmodium falciparum, 3D7
From the text: (§1) We screened both our in-house compound collection (~2.3M compounds) and natural products library (12,000 compounds) using a cell based Plasmodium falciparum proliferation assay. This screen provided data on a large number of chemically diverse anti-malarial compounds. These nearly 5700 hits have been deposited into the public EBI database by GNF/Novartis. A number of these hits originated from kinase-directed libraries and many of which are pan-kinase inhibitors. De-convoluting and eliminating inherent kinase activity with many of these scaffolds while maintaining cellular potency was the first step in the hit-to-lead phase for these particular chemotypes. What follows is a summary of the chemical optimization of some kinase-like and non-kinase scaffolds which came out of the whole-cell screening effort.

[3] = tested on: P. falciparum W2; assay: P. falciparum W2 proliferation assay; assay type: cell-based; conditions: Plasmodium falciparum, mean of two experiments
From the text: as §1

[4] = target: QM-PfDHFR (quadruple mutant PfDHFR); parameters: method as in PMID 20350951; conditions: cited from earlier work
[5] = target: WT-PfDHFR (wild type PfDHFR); parameters: method as in PMID 20350951; conditions: cited from earlier work
[6] = tested on: chloroquine-resistant K1 P. falciparum strain; parameters: method as in PMID 20813948; conditions: Fig. 4; cited from earlier work
[7] = tested on: P. falciparum NF54; parameters: method as in PMID 20813948; conditions: Fig. 4; cited from earlier work
[8] = target: recombinant PfCDPK1 (Plasmodium falciparum, UniProt P62344); assay: PfCDPK1 enzyme inhibition; assay type: biochemical
From the text: In P. falciparum, calcium-dependent protein kinase 1 (PfCDPK1) is expressed during schizogony in the blood and sporozoite stages and is ultimately required for parasite invasion of host cells, parasite motility, and potentially cytokinesis. We identified a series of purine-based, ATP competitive kinase inhibitors from a target-based screen of approximately 20,000 compounds on recombinant PfCDPK1 [9]. Of the most promising hits, the 2,6,9-trisubstitutes purines made up the largest class of compounds coming out of the screen and were therefore chosen as a lead series for chemical optimization.

[9] = tested on: Plasmodium berghei; assay: P. berghei murine model; assay type: in vivo; conditions: for Activity (%): average parasitemia reduction; for parasitemia reduction: at all dosing regimens; for Cure Rate (%): cure was no parasites at day 30
[10] = cytotoxicity on Huh7 cells; conditions: human, Huh7 cells
[11] = cytotoxicity on HEp2 cells; assay type: cell-based; conditions: human
[12] = cytotoxicity on CHO cells; assay type: cell-based; conditions: Chinese hamster
[13] = cytotoxicity on HeLa cells; assay type: cell-based; conditions: human
[14] = tested on: Plasmodium berghei; parameters: method as in earlier work; conditions: single oral dose at 100 mg/kg; cited from earlier work
[15] = in vivo PK in mouse
[16] = tested on: P. falciparum NF54; assay: P. falciparum NF54 in vitro potency; assay type: cell-based; conditions: Plasmodium falciparum, spiroindolones, Tables 8 and 9
[17] = metabolic stability in human liver microsomes; assay type: in vitro ADME; conditions: for half-life: human, liver microsomes, read-out: Liver Microsomes t1/2 (min), Human; for Liver Microsomes CLint, Human: intrinsic clearance, high clearance corresponds to low stability
[18] = in vivo; conditions: mouse, po
[19] = metabolic stability in mouse liver microsomes; assay type: in vitro ADME; conditions: for Liver Microsomes CLint, Mouse: intrinsic clearance, high clearance corresponds to low stability; for half-life: mouse, liver microsomes, read-out: Liver Microsomes t1/2 (min), Mouse
[20] = tested on: 190 kinases; assay: human kinase profile on 190 kinases, biochemical and cellular formats; conditions: biochemical and cellular assay formats
[21] = tested on: 40 mammalian kinases; assay: panel of 40 mammalian kinases; assay type: biochemical
[22] = aqueous solubility; assay type: physicochemical; conditions: aqueous medium, pH 6.8, aqueous buffer
[23] = PAMPA permeability assay; assay type: in vitro ADME
From the text: Access to these types of in vitro assays, both within industry and academia, can greatly accelerate the drug discovery process.

[24] = tested on: Huh7; assay: cytotoxicity on Huh7 cells; conditions: mean of two experiments
[25] = piperidyl benzamides, mean of two experiments, read-out: P. falciparum 3D7 EC50
[26] = purines, mean of two experiments, read-out: P. falciparum 3D7 EC50
[27] = 1 x 30 mg/kg, 7% Tween 80/3% ethanol (20: 75% PEG300/25%D5W)
[28] = 1 x 30 mg/kg, untreated mice 6-7 days
[29] = 1 x 100 mg/kg, untreated mice 6-7 days
[30] = 3 x 30 mg/kg, untreated mice 6-7 days
[31] = imidazolopyrimidines, Fig. 2, read-out: 3D7 EC50
[32] = mean of two experiments, read-out: PfCDPK1 IC50
[33] = imidazolopiperazine hits, mean of two experiments, read-out: P. falciparum 3D7 EC50

Sequence of recombinant PfCDPK1 (P62344 whole entry): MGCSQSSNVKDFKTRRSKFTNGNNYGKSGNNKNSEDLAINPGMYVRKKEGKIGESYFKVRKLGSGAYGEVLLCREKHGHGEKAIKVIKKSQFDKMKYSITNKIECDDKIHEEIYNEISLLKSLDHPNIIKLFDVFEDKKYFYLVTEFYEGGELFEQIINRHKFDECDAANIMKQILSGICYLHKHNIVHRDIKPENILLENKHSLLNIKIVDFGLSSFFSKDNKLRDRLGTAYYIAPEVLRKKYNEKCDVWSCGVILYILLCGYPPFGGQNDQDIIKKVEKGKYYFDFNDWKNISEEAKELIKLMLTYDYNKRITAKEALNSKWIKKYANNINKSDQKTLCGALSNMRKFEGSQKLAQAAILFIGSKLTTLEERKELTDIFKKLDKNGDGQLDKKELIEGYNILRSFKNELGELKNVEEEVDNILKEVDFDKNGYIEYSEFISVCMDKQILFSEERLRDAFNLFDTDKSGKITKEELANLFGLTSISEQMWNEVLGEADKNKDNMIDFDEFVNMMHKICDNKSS

Compound: CC1CCN(C2CCN(c3cc(C(=O)Nc4cccc(Cl)c4)cc(C(F)(F)F)c3)CC2)CC1 [Compound 14]
- EC50 [1]: 100 to 300 nM
- EC50 [2, 25]: 140 nM
- EC50 ([3]; piperidyl benzamides): 323 nM

Compound: CCc1nc(N)nc(N)c1-c1ccc(Cl)cc1 [Pyrimethamine]
- Ki [4]: 385 ± 163 nM
- Ki [5]: 0.59 ± 0.05 nM

Compound: C[C@@H]1CCc2c([nH]c3ccccc23)[C@]2(N1)C(=O)Nc1ccc(Br)cc12 [Compound 23]
- EC50 [6]: > 3000 nM
- EC50 [7]: > 5000 nM

Compound: CCOc1ccc(-n2cnc3c(Nc4ccc(C(=O)N5CCCCC5)cc4)nc(N[C@H]4CC[C@H](N)CC4)nc32)cc1 [Compound 5]
- EC50 [2, 26]: 535 nM
- IC50 [8]: 240 nM

Compound: CC1(C)N=C(N)N=C(N)N1c1ccc(Cl)cc1 [Cycloguanil]
- Ki [4]: 454 ± 38 nM
- Ki [5]: 1.51 ± 0.1 nM

Compound: C[C@H]1CCc2c([nH]c3ccccc23)[C@@]2(N1)C(=O)Nc1ccc(Br)cc12 [Compound 22]
- EC50 [6]: 16 nM
- EC50 [7]: 10 nM

Compound: CC(C)(N)C(=O)N1CCn2c(nc(-c3ccc(F)cc3)c2Nc2ccc(F)cc2)C1 [Compound 19]
- Activity (%) [9, 27]: 99.3%
- Survival [9, 28]: 7.7 days
- Activity (%) ([9]; 1 x 100 mg/kg): 99.6%
- Survival [9, 29]: 13.3 days
- Activity (%) ([9]; 3 x 30 mg/kg): 99.9%
- Survival [9, 30]: 14.0 days
- parasitemia reduction [9]: more than 99%

Compound: N[C@H]1CC[C@H](Nc2nc(Nc3ccc(C(=O)N4CCCCC4)cc3)c3ncn(-c4cccc(F)c4)c3n2)CC1 [Compound 2, purfalcamine]
- EC50 [10]: 5500 nM
- EC50 [11]: 7200 nM
- EC50 [12]: 12300 nM
- EC50 [2, 26]: 230 nM
- EC50 [13]: 7000 nM
- IC50 [8]: 17 nM
- improvement in enzyme potency (2 vs. 3) ([8]; compound 2 versus compound 3): greater than 200 fold

Compound: C[C@H]1Cc2c([nH]c3cc(Cl)c(F)cc23)[C@@]2(N1)C(=O)Nc1ccc(Cl)cc12 [Compound 30]
- clearance of P. berghei infection [14]: completely cleared a P. berghei infection in all treated mice
- half-life ([15]; in vivo, po): 600 min
- EC50 [16]: 0.9 nM
- half-life [17]: 76 min
- Liver Microsomes CLint, Human [17]: Low
- bioavailability [18]: 100%
- Liver Microsomes CLint, Mouse [19]: Low
- half-life [19]: 49 min

Compound: O=C(Nc1cccc(Cl)c1)c1cc(N2CCC(N3CCCCC3)CC2)cc(C(F)(F)F)c1 [Compound 12]
- EC50 [2, 25]: 97 ± 18 nM
- EC50 ([3]; piperidyl benzamides): 276 ± 14 nM

Compound: C[C@H]1Cc2c([nH]c3cc(F)ccc23)[C@@]2(N1)C(=O)Nc1ccc(Cl)cc12 [Compound 28]
- EC50 [16]: 3.5 nM
- half-life [17]: 53.3 min
- Liver Microsomes CLint, Human [17]: Low
- Liver Microsomes CLint, Mouse [19]: Low
- half-life [19]: 53 min

Compound: CN1CCN(c2nc(Nc3ccc(OC(F)(F)F)cc3)cc(Nc3nccn3-c3cccc(C(F)(F)F)c3)n2)CC1 [Compound 17]
- human kinase profile on 190 kinases [20]: clean human kinase profile
- EC50 [1]: < 140 nM
- improvement in potency over the hit compound ([2]; 17 versus 16): greater than 10 fold
- EC50 [2, 31]: 34 nM

Compound: N[C@H]1CC[C@H](Nc2nc(Nc3ccc(C(=O)N4CCCCC4)cc3)c3ncn(-c4cccc(C(=O)O)c4)c3n2)CC1 [Compound 6]
- EC50 [2, 26]: > 10000 nM
- IC50 [8, 32]: 71 nM

Compound: O=C(Nc1cccc(Cl)c1)c1cc(N2CCC(N3CCCC3)CC2)cc(C(F)(F)F)c1 [Compound 11]
- EC50 [2, 25]: 134 ± 56 nM
- EC50 ([3]; piperidyl benzamides): 888 ± 112 nM

Compound: N[C@H]1CC[C@H](Nc2nc(Nc3ccc(C(=O)N4CCCCC4)cc3)c3ncn(-c4ccc(C(=O)O)cc4)c3n2)CC1 [Compound 7]
- EC50 [2, 26]: > 10000 nM
- IC50 [8, 32]: 28 nM

Compound: O=C(Nc1cccc(C(F)(F)F)c1)c1cc(N2CCC(N3CCCCC3)CC2)cc(C(F)(F)F)c1 [Compound 13]
- EC50 [2, 25]: 149 nM
- EC50 ([3]; piperidyl benzamides): 299 nM

Compound: N[C@H]1CC[C@H](Nc2nc(Nc3ccc(C(=O)N4CCCCC4)cc3)c3ncn(-c4ccc(OCc5ccccc5)cc4)c3n2)CC1 [Compound 3]
- EC50 [2, 26]: 312 nM
- IC50 [8, 32]: 4040 nM

Compound: C[C@H]1[C@H](OC(=O)CCC(=O)O)O[C@@H]2O[C@@]3(C)CC[C@H]4[C@H](C)CC[C@@H]1[C@@]24OO3 [AS, artesunate, reference compound]
- Activity (%) [9, 27]: 89%
- Activity (%) ([9]; 1 x 30 mg/kg, 10% ethanol, 30% PEG400, 6% vitamin E TPGS (30: 0.5% MCM / 0.1% Solutol HS15)): 92.2%
- Cure Rate (%) ([9]; 1 x 30 mg/kg): 0%
- Survival [9, 28]: 7.2 days
- Survival ([9]; 1 x 30 mg/kg, untreated mice 6-7 days, Table 10): 7.3 days
- Activity (%) ([9]; 1 x 100 mg/kg): 97%
- Survival [9, 29]: 6.7 days
- Survival ([9]; 3 x 30 mg/kg, 30 day experiment, Table 10): 11.8 days
- Activity (%) ([9]; 3 x 30 mg/kg): 98%
- Activity (%) ([9]; 3 x 30 mg/kg, Table 10): 99.0%
- Cure Rate (%) ([9]; 3 x 30 mg/kg): 0%
- Survival [9, 30]: 7.2 days

Compound: FC(F)(F)Oc1ccc(Nc2cc(Nc3nccn3-c3cccc(C(F)(F)F)c3)ncn2)cc1 [Compound 16]
- activity against a panel of 40 mammalian kinases [21]: did not exhibit significant activity
- solubility [22]: 36 µM (≈ 17.3 µg/mL)
- EC50 [2, 31]: 420 nM

Compound: CC1CCc2c([nH]c3ccccc23)C2(N1)C(=O)Nc1ccc(Br)cc12 (centres unmarked) [Compound 21]
- Cmax ([15]; in vivo, po, 25 mg/kg): 1400 nM
- bioavailability ([15]; in vivo, po, 25 mg/kg): 59%
- oral T1/2 ([15]; single 25 mg/kg oral dose): four
- EC50 [6]: 80 nM
- EC50 [7]: 90 nM
- solubility [22]: 75 µM (≈ 29.7 µg/mL)
- mouse survival ([9]; single oral dose of 100 mg/kg): slight prolongation in mouse survival over control
- reduction in parasitemia ([9]; single oral dose of 100 mg/kg): 96%
- permeability in a PAMPA assay [23]: 99%

Compound: N[C@H]1CC[C@H](Nc2nc(Nc3ccc(C(=O)N4CCCCC4)cc3)c3ncn(-c4ccc5c(c4)OCO5)c3n2)CC1 [Compound 4]
- EC50 [2, 26]: 400 nM
- IC50 [8, 32]: 342 nM

Compound: CC1CCCN(C2CCN(c3cc(C(=O)Nc4cccc(C(F)(F)F)c4)cc(C(F)(F)F)c3)CC2)C1 (centres unmarked) [Compound 15]
- EC50 [2, 25]: 58 nM
- EC50 ([3]; piperidyl benzamides): 211 nM

Compound: CC(C)(N)C(=O)N1CCn2c(nc(-c3ccc(F)cc3)c2Nc2ccc(F)c(Cl)c2)C1 [Compound 20]
- Activity (%) [9, 27]: 99.4%
- Survival [9, 28]: 7.7 days
- Activity (%) ([9]; 1 x 100 mg/kg): 99.4%
- Survival [9, 29]: 17.0 days
- Activity (%) ([9]; 3 x 30 mg/kg): 99.8%
- Survival [9, 30]: 17.7 days
- parasitemia reduction [9]: more than 99%

Compound: C[C@H]1Cc2c([nH]c3ccc(F)cc23)[C@@]2(N1)C(=O)Nc1ccc(Cl)cc12 [Compound 27]
- EC50 [16]: 3.4 nM
- half-life [17]: 10 min
- Liver Microsomes CLint, Human [17]: Med
- Liver Microsomes CLint, Mouse [19]: High
- half-life [19]: 4.2 min

Compound: NC(Cc1ccccc1)C(=O)N1CCn2c(nc(-c3ccccc3)c2Nc2ccc3c(c2)OCO3)C1 (centres unmarked) [Compound 18b]
- Cytotoxicity (µM) Huh7 [24]: > 10 µM
- EC50 [2, 33]: 235 nM
- EC50 ([3]; imidazolopiperazine hits): 271 nM

Compound: C[C@H]1Cc2c([nH]c3cc(F)c(F)cc23)[C@@]2(N1)C(=O)Nc1ccc(Cl)cc12 [Compound 29]
- EC50 [16]: 0.2 nM
- half-life [17]: 56.4 min
- Liver Microsomes CLint, Human [17]: Low
- Liver Microsomes CLint, Mouse [19]: Low
- half-life [19]: 49.1 min

Compound: CC(C)CC(N)C(=O)N1CCn2c(nc(-c3ccccc3)c2Nc2ccc3c(c2)OCO3)C1 (centres unmarked) [Compound 18c]
- Cytotoxicity (µM) Huh7 [24]: > 10 µM
- EC50 [2, 33]: 116 nM
- EC50 ([3]; imidazolopiperazine hits): 119 nM
